Measured values: paper PMC4138103 (PLoS ONE, 2014)

Tested on: Sprague-Dawley rats
Assay: Hematology
Assay type: in vivo, Rattus norvegicus
Set-up: key to Dose response, MCH / Dose response, MCHC / Dose response, PLT / Dose response, MCV: D: significant dose response (for results, see Table 2); T: significant trend; HCT, Hematocrit: unit not given here
Conditions: males; for MCH, Mean corpuscular hemoglobin / MCHC, Mean corpuscular hemoglobin concentration / MCV, Mean corpuscular volume / MPV, Mean platelet volume / Monocytes / Neutrophils / PDW, Platelet distribution width / PLT, Platelet count / RBC, Red cell count / WBC, Leukocyte total count / Basophils / Eosinophils / HB, Hemoglobin / Lymphocytes / HCT, Hematocrit: group mean
Method: Basic blood picture analysis was carried out using Advia 120 analyzer (Bayer, later Siemens Diagnostic Division, Dublin, Ireland). This analysis includes red cell count (RBC), hemoglobin (HB), hematocrit (HCT), platelet count (PLT), leukocyte total count (WBC) and differential count as well as the calculated red cell and platelet parameters mean corpuscular volume (MCV), mean corpuscular hemoglobin (MCH), mean corpuscular hemoglobin concentration (MCHC), red cell distribution width - standard deviation (RDW-SD), platelet distribution width (PDW) and mean platelet volume (MPV). Blood cell counting is based on isovolumetric sphering and fixing the cells, stains and light scattering. Visual leukocyte differential counting was done after May-Grünwald-Giemsa staining.
Data were also analyzed using the BMD method, which is based on dose-response modeling of the full data set using a nested family of exponential and Hill models. The analyses were done on data of males and females combined, using sex as a covariate. […] In that case, different Critical Effect Doses (CEDs) and CEDs at the lowest bound of the confidence interval (CED-L) were generated for each sex. If no difference between sexes is detected, a CED and CED-Ls for the combined data is generated. However, this was also done if the curve fits are close, and separate analyses for males and females were then performed manually. CEDs and CED-Ls were calculated at the predefined Critical Effect Size (CES) of 5% (EFSA standard) or 10%.

[1] = total dose 300 mg/kg bw, N=5, p<0.01 vs. control
[2] = total dose 1000 mg/kg bw, N=5, p<0.001 vs. control
[3] = total dose 1700 mg/kg bw, N=5, p<0.001 vs. control

Clc1cc(Cl)c(-c2cc(Cl)c(Cl)c(Cl)c2Cl)cc1Cl [PCB 180, 2,2′,3′,4,4′,5,5′-heptachlorobiphenyl]
MCH, Mean corpuscular hemoglobin (total dose 100 mg/kg bw, N=5): 22.18 pg
MCHC, Mean corpuscular hemoglobin concentration (total dose 100 mg/kg bw, N=5): 352 g/L
MCV, Mean corpuscular volume (total dose 100 mg/kg bw, N=5): 63.1 fL
MPV, Mean platelet volume (total dose 100 mg/kg bw, N=5): 7.28 fL
Monocytes (total dose 100 mg/kg bw, N=5): 4.4%
Neutrophils (total dose 100 mg/kg bw, N=5): 7.2%
PDW, Platelet distribution width (total dose 100 mg/kg bw, N=5): 7.90 fL
PLT, Platelet count (total dose 100 mg/kg bw, N=5): 8.93e+11 L⁻¹
RBC, Red cell count (total dose 100 mg/kg bw, N=5): 7.65e+12 L⁻¹
WBC, Leukocyte total count (total dose 100 mg/kg bw, N=5): 1.654e+10 L⁻¹
Basophils (total dose 300 mg/kg bw, N=5): 0.0%
Eosinophils (total dose 300 mg/kg bw, N=5): 1.0%
HB, Hemoglobin (total dose 300 mg/kg bw, N=5): 165 g/L
Lymphocytes (total dose 300 mg/kg bw, N=5): 85.8%
MCH, Mean corpuscular hemoglobin (total dose 300 mg/kg bw, N=5): 22.38 pg
MCHC, Mean corpuscular hemoglobin concentration (total dose 300 mg/kg bw, N=5): 351 g/L
MCV, Mean corpuscular volume (total dose 300 mg/kg bw, N=5): 63.8 fL
MPV, Mean platelet volume (total dose 300 mg/kg bw, N=5): 7.12 fL
Monocytes (total dose 300 mg/kg bw, N=5): 5.2%
Neutrophils (total dose 300 mg/kg bw, N=5): 8.0%
PDW, Platelet distribution width (total dose 300 mg/kg bw, N=5): 7.66 fL
PLT, Platelet count (total dose 300 mg/kg bw, N=5): 9.4e+11 L⁻¹
WBC, Leukocyte total count (total dose 300 mg/kg bw, N=5): 2.076e+10 L⁻¹
HCT, Hematocrit [1]: 0.47
RBC, Red cell count [1]: 7.38e+12 L⁻¹
Basophils (total dose 1000 mg/kg bw, N=5): 0.0%
Eosinophils (total dose 1000 mg/kg bw, N=5): 1.0%
Lymphocytes (total dose 1000 mg/kg bw, N=5): 86.8%
MCH, Mean corpuscular hemoglobin (total dose 1000 mg/kg bw, N=5): 22.94 pg
MCV, Mean corpuscular volume (total dose 1000 mg/kg bw, N=5): 63.2 fL
MPV, Mean platelet volume (total dose 1000 mg/kg bw, N=5): 7.04 fL
Monocytes (total dose 1000 mg/kg bw, N=5): 3.6%
Neutrophils (total dose 1000 mg/kg bw, N=5): 8.6%
PDW, Platelet distribution width (total dose 1000 mg/kg bw, N=5): 7.60 fL
PLT, Platelet count (total dose 1000 mg/kg bw, N=5): 8.85e+11 L⁻¹
WBC, Leukocyte total count (total dose 1000 mg/kg bw, N=5): 1.798e+10 L⁻¹
HCT, Hematocrit [2]: 0.44
RBC, Red cell count [2]: 6.99e+12 L⁻¹
MCHC, Mean corpuscular hemoglobin concentration (total dose 1000 mg/kg bw, N=5, p<0.01 vs. control): 364 g/L
HB, Hemoglobin (total dose 1000 mg/kg bw, N=5, p<0.05 vs. control): 161 g/L
Basophils (total dose 1700 mg/kg bw, N=5): 0.4%
Eosinophils (total dose 1700 mg/kg bw, N=5): 0.4%
Lymphocytes (total dose 1700 mg/kg bw, N=5): 87.2%
MCH, Mean corpuscular hemoglobin (total dose 1700 mg/kg bw, N=5): 22.78 pg
MCHC, Mean corpuscular hemoglobin concentration (total dose 1700 mg/kg bw, N=5): 355 g/L
MCV, Mean corpuscular volume (total dose 1700 mg/kg bw, N=5): 64.2 fL
MPV, Mean platelet volume (total dose 1700 mg/kg bw, N=5): 7.08 fL
Monocytes (total dose 1700 mg/kg bw, N=5): 5.4%
Neutrophils (total dose 1700 mg/kg bw, N=5): 6.6%
PDW, Platelet distribution width (total dose 1700 mg/kg bw, N=5): 7.54 fL
PLT, Platelet count (total dose 1700 mg/kg bw, N=5): 9.37e+11 L⁻¹
WBC, Leukocyte total count (total dose 1700 mg/kg bw, N=5): 1.68e+10 L⁻¹
HCT, Hematocrit [3]: 0.45
RBC, Red cell count [3]: 6.99e+12 L⁻¹
HB, Hemoglobin (total dose 1700 mg/kg bw, N=5, p<0.01 vs. control): 159 g/L
Dose response, HB (total doses 0-1700 mg/kg bw): D, T
Dose response, HCT (total doses 0-1700 mg/kg bw): D, T
Dose response, MCH (total doses 0-1700 mg/kg bw): T
Dose response, MCHC (total doses 0-1700 mg/kg bw): T
Dose response, PLT (total doses 0-1700 mg/kg bw): T
Dose response, RBC (total doses 0-1700 mg/kg bw): D, T
Hematocrit, CED (CES 5%, total dose based): 140 mg/kg bw
Hematocrit, CED-L (CES 5%, total dose based): 66.3 mg/kg bw
Hemoglobin, CED (CES 5%, total dose based): 201 mg/kg bw
Hemoglobin, CED-L (CES 5%, total dose based): 62.8 mg/kg bw
Platelet count, CED (CES 5%, total dose based): 40.7 mg/kg bw
Platelet count, CED-L (CES 5%, total dose based): 9.68 mg/kg bw
Red blood cell count, CED (CES 5%, total dose based): 138 mg/kg bw
Red blood cell count, CED-L (CES 5%, total dose based): 82.2 mg/kg bw
Hematocrit, CED (CES 10%, total dose based): 481 mg/kg bw
Platelet count, CED (CES 10%, total dose based): 143 mg/kg bw
Red blood cell count, CED (CES 10%, total dose based): 436 mg/kg bw
Red blood cell count, CED-L (CES 10%, total dose based): 252 mg/kg bw
RBC, CED (adipose tissue concentration based): 598 µg/g lipid
